For the first assay, the target named is Factor D (Homo sapiens (Human), UniProt P00746). The assay can be described thus: biochemical. The assay is classed as biochemical.
Chain of Factor D (P00746 26-253): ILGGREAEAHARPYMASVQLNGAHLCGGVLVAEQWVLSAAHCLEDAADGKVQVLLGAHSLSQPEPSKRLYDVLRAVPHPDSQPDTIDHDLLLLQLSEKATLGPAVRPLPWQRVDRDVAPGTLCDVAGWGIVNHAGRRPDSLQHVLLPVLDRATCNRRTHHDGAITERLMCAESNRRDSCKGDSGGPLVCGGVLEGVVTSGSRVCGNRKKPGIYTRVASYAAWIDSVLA
Details: not given
For the compound `CO[C@H]1[C@@H](C(=O)NCc2cccc(Cl)c2F)N(C(=O)Cn2cc(C(C)=O)c3ccccc32)C[C@@H]1F` [Example 505, (2S,3S,4S)-1-[2-(3-Acetyl-indol-1-yl)-acetyl]-4-fluoro-3-methoxy-pyrrolidine-2-carboxylic acid 3-chloro-2-fluoro-benzylamide], the concentration for half-maximal inhibition (IC50) was found to be 0.014 µM.

The same assay, now with this note: read-out: IC50.
Turning to `NC(=O)n1cc(NC(=O)N2C[C@H](F)C[C@H]2CNS(=O)(=O)c2cccc(Cl)c2F)c2ccccc21` [Example 110, 3-({(2S,4R)-2-[(3-Chloro-2-fluoro-benzenesulfonylamino)-methyl]-4-fluoro-pyrrolidine-1-carbonyl}-amino)-indole-1-carboxylic acid amide], the IC50 was 0.02 µM.
Still for that read-out and setting: for `NC(=O)n1cc(NC(=O)N2C[C@@H](N)C[C@H]2C(=O)NC2CCCN(c3ccccn3)C2)c2ccccc21` (stereo partly drawn) [Example 78, (2S,4S)-4-Amino-pyrrolidine-1,2-dicarboxylic acid 1-[(1-carbamoyl-1H-indol-3-yl)-amide] 2-[(3,4,5,6-tetrahydro-2H-[1,2′]bipyridinyl-3-yl)-amide]] the value was 10.4 µM; for `NC(=O)c1nn(CC(=O)N2[C@H](C(=O)Nc3cccc(Br)c3F)C[C@@]3(CO)C[C@@H]23)c2ccccc12` [Example 759, 1-{2-[(1R,3S,5S)-3-(3-Bromo-2-fluoro-phenylcarbamoyl)-5-hydroxymethyl-2-aza-bicyclo[3.1.0]hex-2-yl]-2-oxo-ethyl}-1H-indazole-3-carboxylic acid amide], 0.009 µM.
Still for that read-out and setting: the same measure for `CC(=O)c1nn(CC(=O)N2[C@@H]3C[C@@H]3C[C@H]2C(=O)Nc2cccc(OC(F)(F)F)c2F)c2cc(C(=O)O)ccc12` [Example 725]: 0.018 µM.
On the same count and under the same terms, for `NC(=O)n1cc(NC(=O)N2C[C@@H](C(=O)O)C[C@H]2C(=O)NCc2c(F)ccc(Cl)c2F)c2ccccc21` [Example 354, (3S,5S)-1-(1-Carbamoyl-1H-indol-3-ylcarbamoyl)-5-(3-chloro-2,6-difluoro-benzylcarbamoyl)-pyrrolidine-3-carboxylic acid] the value was 1.66 µM.
As to `NC(=O)n1cc(NC(=O)N2[C@@H]3C[C@@H]3C[C@H]2C(=O)Nc2cncc(Cl)c2)c2ccccc21` [Example 247, (1R,3S,5R)-2-Aza-bicyclo[3.1.0]hexane-2,3-dicarboxylic acid 2-[(1-carbamoyl-1H-indol-3-yl)-amide] 3-[(5-chloro-pyridin-3-yl)-amide]], the 50% inhibitory concentration (IC50) stood at 0.4 µM.
For `COC(=O)c1ccc2c(C(C)=O)nn(CC(=O)N3[C@@H]4C[C@@H]4C[C@H]3C(=O)NCc3cccc(Cl)c3F)c2c1` [Example 632, 3-Acetyl-1-{2-[(1R,3S,5R)-3-(3-chloro-2-fluoro-benzylcarbamoyl)-2-aza-bicyclo [3.1.0]hex-2-yl]-2-oxo-ethyl}-1H-indazole-6-carboxylic acid methyl ester], the IC50 was 0.018 µM.
Regarding `NC(=O)n1cc(NC(=O)N2[C@@H]3C[C@@H]3C[C@H]2C(=O)NCc2cccc(Cl)c2F)c2ccc(OCC(=O)O)cc21` [Example 376, (1-Carbamoyl-3-{[(1R,3S,5R)-3-(3-chloro-2-fluoro-benzylcarbamoyl)-2-aza-bicyclo[3.1.0]hexane-2-carbonyl]-amino}-1H-indol-6-yloxy)-acetic acid], the half-maximal inhibitory concentration (IC50) amounted to 0.247 µM.
For `NC(=O)c1cn(CC(=O)N2C[C@H](F)C[C@H]2C(=O)NCc2cccc(Cl)c2F)c2cc(OCC(=O)O)ccc12` [Example 593, (3-Carbamoyl-1-{2-[(2S,4R)-2-(3-chloro-2-fluoro-benzylcarbamoyl)-4-fluoro-pyrrolidin-1-yl]-2-oxo-ethyl}-1H-indol-6-yloxy)-acetic acid], the concentration for half-maximal inhibition (IC50) came out at 0.056 µM.
The same measure, in the same setting: for `CC(=O)c1nn(CC(=O)N2[C@@H]3C[C@@H]3C[C@H]2C(=O)Nc2cccc(C(F)(F)F)n2)c2cnccc12` [Example 733, (1R,3S,5R)-2-[2-(3-Acetyl-pyrazolo[3,4-c]pyridin-1-yl)-acetyl]-2-aza-bicyclo[3.1.0] hexane-3-carboxylic acid (6-trifluoromethyl-pyridin-2-yl)-amide] the value was 0.025 µM; for `NC(=O)n1cc(NC(=O)N2CC(F)(F)C[C@H]2C(=O)NCc2cccc(Cl)c2F)c2ccccc21` [Example 301, (S)-4,4-Difluoro-pyrrolidine-1,2-dicarboxylic acid 1-[(1-carbamoyl-1H-indol-3-yl)-amide] 2-(3-chloro-2-fluoro-benzylamide)], 0.095 µM.
Still for that read-out and setting: for `NC(=O)n1cc(NC(=O)N2C[C@@](O)(CO)C[C@H]2C(=O)NCc2cccc(Cl)c2F)c2ccccc21` [Example 196, (2S,4R)-4-Hydroxy-4-hydroxymethyl-pyrrolidine-1,2-dicarboxylic acid 1-[(1-carbamoyl-1H-indol-3-yl)-amide] 2-(3-chloro-2-fluoro-benzylamide)] the value was 0.7 µM.
For `CC(=O)c1nc(CC(=O)N2[C@@H]3C[C@@H]3C[C@H]2C(=O)N[C@H](CC#N)c2cccc(Cl)c2F)n2ccccc12` [Example 679, (1R,3S,5R)-2-[2-(1-Acetyl-imidazo[1,5-a]pyridin-3-yl)-acetyl]-2-aza-bicyclo[3.1.0]hexane-3-carboxylic acid [(R)-1-(3-chloro-2-fluoro-phenyl)-2-cyano-ethyl]-amide], the IC50 is 0.134 µM.
Consider `CN(C)CCNC(=O)c1cc(Cl)c(F)c(CNC(=O)[C@@H]2C[C@@H](F)CN2C(=O)Nc2cn(C(N)=O)c3ccccc23)c1` [Example 154, (2S,4R)-4-Fluoro-pyrrolidine-1,2-dicarboxylic acid 1-[(1-carbamoyl-1H-indol-3-yl)-amide] 2-[3-chloro-5-(2-dimethylamino-ethyl-carbamoyl)-2-fluoro-benzylamide]], for which the IC50 worked out at 1.37 µM.
As for `NC(=O)n1cc(NC(=O)N2CC3CC3[C@H]2C(=O)NCc2cccc(Cl)c2F)c2ccccc21` (stereo partly drawn) [Example 135, (1S,2S,5R)-3-Aza-bicyclo[3.1.0]hexane-2,3-dicarboxylic acid 3-[(1-carbamoyl-1H-indol-3-yl)-amide] 2-(3-chloro-2-fluoro-benzylamide)], the concentration for half-maximal inhibition (IC50) is 0.059 µM.
As for `CC(=O)c1cn(CC(=O)N2C[C@H](F)C[C@H]2C(=O)NCc2cccc(Cl)c2F)c2cnccc12` [Example 552, (2S,4R)-1-[2-(3-Acetyl-pyrrolo[2,3-c]pyridin-1-yl)-acetyl]-4-fluoro-pyrrolidine-2-carboxylic acid 3-chloro-2-fluoro-benzylamide], the concentration for half-maximal inhibition (IC50) came out at 0.04 µM.
On the same count and under the same terms, for `C[C@]1(O)C[C@@H](C(=O)NCc2cccc(Cl)c2F)N(C(=O)Nc2cn(C(N)=O)c3ccccc23)C1` [Example 164, (2S,4S)-4-Hydroxy-4-methyl-pyrrolidine-1,2-dicarboxylic acid 1-[(1-carbamoyl-1H-indol-3-yl)-amide] 2-(3-chloro-2-fluoro-benzylamide)] the value was 0.4 µM; for `COc1cnc2c(c1)c(C(C)=O)cn2CC(=O)N1[C@@H]2C[C@@H]2C[C@H]1C(=O)NCc1cccc(Cl)c1F` [Example 494, (1R,3S,5R)-2-[2-(3-Acetyl-5-methoxy-pyrrolo[2,3-b]pyridin-1-yl)-acetyl]-2-aza-bicyclo [3.1.0]hexane-3-carboxylic acid 3-chloro-2-fluoro-benzylamide], 0.05 µM.
For `CC(=O)c1cn(CC(=O)N2[C@H](CNC(=O)Oc3cccc(Cl)c3F)C[C@H]3C[C@H]32)c2ccccc12` [Example 622, {(1R,3S,5R)-2-[2-(3-Acetyl-indol-1-yl)-acetyl]-2-aza-bicyclo[3.1.0]hex-3-ylmethyl}-carbamic acid 3-chloro-2-fluoro-phenyl ester], the IC50 came to 5.59 µM.
On the same count and under the same terms, the same measure for `NC(=O)c1cn(CC(=O)N2C[C@H](F)C[C@H]2C(=O)NCc2cccc(Cl)c2F)c2c(Cl)cccc12` [Example 489, 7-Chloro-1-{2-[(2S,4R)-2-(3-chloro-2-fluoro-benzylcarbamoyl)-4-fluoro-pyrrolidin-1-yl]-2-oxo-ethyl}-1H-indole-3-carboxylic acid amide]: 0.124 µM.
As to `CC(=O)c1cn(CC(=O)N2[C@@H]3C[C@@H]3C[C@H]2C(=O)NCc2cccc(Cl)c2F)c2cc(O)ccc12` [Example 584, (1R,3S,5R)-2-[2-(3-Acetyl-6-hydroxy-indol-1-yl)-acetyl]-2-aza-bicyclo[3.1.0]hexane-3-carboxylic acid 3-chloro-2-fluoro-benzylamide], the IC50 came out at 0.038 µM.
For the compound `NC(=O)c1cn(CC(=O)N2C[C@H](F)C[C@H]2C(=O)Nc2cccc(C(F)(F)F)c2F)c2ccccc12` [Example 517, 1-{2-[(2S,4R)-4-Fluoro-2-(2-fluoro-3-trifluoromethyl-phenylcarbamoyl)-pyrrolidin-1-yl]-2-oxo-ethyl}-1H-indole-3-carboxylic acid amide], the IC50 amounted to 1.46 µM.
Same read-out and setting: for `CN(C)C[C@H]1C[C@@H](C(=O)NCc2cccc(Cl)c2F)N(C(=O)Nc2cn(C(N)=O)c3ccccc23)C1` [Example 406, 2S,4R)-4-Dimethylaminomethyl-pyrrolidine-1,2-dicarboxylic acid 1-[(1-carbamoyl-1H-indol-3-yl)-amide]2-(3-chloro-2-fluoro-benzylamide] the value was 0.15 µM.
In the case of `CC(=O)c1cn(CC(=O)N2C[C@H](F)C[C@H]2C(=O)NCc2cc(C#N)cc(Cl)c2F)c2ccccc12` [Example 498, (2S,4R)-1-[2-(3-Acetyl-indol-1-yl)-acetyl]-4-fluoro-pyrrolidine-2-carboxylic acid 3-chloro-5-cyano-2-fluoro-benzylamide], the IC50 was found to be 0.692 µM.
The same measure, in the same setting: for `COc1ccc2c(NC(=O)N3C4CC4C[C@H]3C(=O)NCc3cccc(Cl)c3F)cn(C(N)=O)c2c1` (stereo partly drawn) [Example 216, (1R,3S,5R)-2-Aza-bicyclo[3.1.0]hexane-2,3-dicarboxylic acid 2-[(1-carbamoyl-6-methoxy-1H-indol-3-yl)-amide] 3-(3-chloro-2-fluoro-benzylamide)] the value was 0.065 µM.
For the compound `COCC(=O)c1cn(CC(=O)N2C[C@H](F)C[C@H]2C(=O)NCc2cccc(Cl)c2F)c2ccccc12` [Example 565, (2S,4R)-4-Fluoro-1-{2-[3-(2-methoxy-acetyl)-indol-1-yl]-acetyl}-pyrrolidine-2-carboxylic acid 3-chloro-2-fluoro-benzylamide], the half-inhibitory concentration (IC50) was determined as 0.369 µM.
Still for that read-out and setting: for `NC(=O)n1cc(NC(=O)N2[C@@H]3C[C@@H]3C[C@H]2C(=O)NCc2cccc(Cl)c2F)c2ccc(CCO)cc21` [Example 384, 1R,3S,5R)-2-Aza-bicyclo[3.1.0]hexane-2,3-dicarboxylic acid 2-{[1-carbamoyl-6-(2-hydroxy-ethyl)-1H-indol-3-yl]-amide}3-(3-chloro-2-fluoro-benzylamide] the value was 0.032 µM.

In general, IC50 refers to the midpoint of a concentration-inhibition curve.

The record behind these values is patent US9085555B2, “Complement pathway modulators and uses thereof” (priority 2011, dated 2015).
